This passage reports EC50 and IC50 results from patent US20240287048A1, “SUBSTITUTED ACYL SULFONAMIDES FOR TREATING CANCER” (The Broad Institute, Inc., priority 2020, published 2024).

One experiment concerns ZR-75-1 cells. In words: Proliferation assay in ZR-75-1 cells. Type of experiment: cell-based. Particulars: Homo sapiens, 144 h, Alamar Blue, read-out: ZR75-1 proliferation assay, EC50[M] (arithmetic mean). The text has this:
(§1) For compound characterization cell survival assays were routinely run in two cell lines. ZR-75-1 is a breast carcinoma cell line containing a focal KAT6A amplification and high KAT6A protein expression. Proliferation of this cell line is inhibited upon treatment with KAT6A inhibitors. As a negative control cell line MDA-MB-436 were used. These cells carry a […] deletion of the KAT6A gene, have a low KAT6A protein expression and are not growth inhibited upon treatment with KAT6A inhibitors.
(§2) For measurements cell lines were plated at the below indicated concentration per […] in 96-well plates in a humidified incubator at 37° C. and 5% CO2.
(§3) ZR-75-1 (ATCC, CRL-1500; breast carcinoma); 3000 cells per well; culture medium: RPMI 1640 (Biochrom #FG 1215) medium containing 2.5% FBS (Biochrom #S0615). LCLC-97TM1 (DSMZ, ACC 388; large cell lung carcinoma); 6000 cells per well; culture medium: RPMI 1640 (Biochrom #FG 1215) medium containing 2.5% FBS (Biochrom #S0615). MDA-MB-436 (CLS, 300278; breast adenocarcinoma); 3000 cells per well; culture medium: DMEM/Ham's F12 (Biochrom #FG 4815) medium containing 2.5% FBS (Biochrom #S0615).
(§4) Each sample was prepared as triplicate and rim wells were excluded. Plates were incubated at 37° C. and 5% CO2 for 144 h. Cell viability was measured by adding 10 μL of Alamar Blue Reagent (Invitrogen #DAL 1100) and plates were incubated for 2 h at 37° C. and 5% CO2. Fluorescence was measured at 590 nm wavelength with a Tecan Spark or Victor X3 MTP-Reader (PerkinElmer).
In general terms: Resazurin is reduced to fluorescent resorufin, in cell work by metabolically active cells.

A further experiment has as its target T1, KAT6A (Homo sapiens, UniProt Q92794).
T1 construct: Recombinant human His-tagged Kat6a protein (amino acids 194-810); His; made in house; host or cells: Baculovirus-infected Sf9 insect cells
In words: Kat6a activity assay (TR-FRET, acetylation of biotinylated histone H4 peptide). Type of experiment: biochemical. Particulars: recombinant human His-tagged Kat6a (amino acids 194-810), 60 mins at 22° C., read-out: KAT6A-DPF/HAT domain IC50 [mol/l] (arithmetic mean). The procedure, abridged:
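His-tagged human Kat6a (aa 194-810, Sf9-expressed) with compound (0.01-20 μM) for 60 min at 22° C., pH 8 Tris buffer, 220 nM biotinylated H4 peptide (aa 1-24) and 600 nM acetyl-CoA. Acetyl-K8 detected by Eu-antibody/SA-XL665 TR-FRET (665/620 nm ratio); IC50 from 4-parameter fit.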
Background: In TR-FRET formats the signal depends on donor and acceptor labels being close together.

The next experiment addresses T2, KAT6B (Homo sapiens, UniProt Q8WYB5).
T2 construct: fused on or other part: N-terminal GST tag
Description: Kat6b activity assay (TR-FRET, acetylation of biotinylated histone H4 peptide). The experiment is classed as biochemical. The settings on record: recombinant human GST-tagged Kat6b (431-end), 30 mins at 22° C., read-out: KAT6B activity assay IC50 [mol/l] (arithmetic mean). An excerpt:
Kat6b inhibitory activities of the compounds described in the present invention were quantified using a Fluorescence Resonance Energy Transfer (TR-FRET) assay which measures acetylation of a synthetic, biotinylated Histone-H4-derived peptide by the enzyme.
Recombinant human GST-tagged Kat6b protein (431-end, N-terminal GST-tag), purified from Baculovirus-infected insect cells (Sf9), was purchased from SignalChem (#K315-381BG). Histone H4 peptide (amino acids 1-24, […]-VLRD-K(Btn)-amide), which was used as substrate, was synthesized by Biosyntan GmbH, Berlin, Germany. Acetyl Coenzyme A was purchased from Sigma-Aldrich (#A-2056).
Kat6b was incubated for 30 mins at 22° C. in the presence of different concentrations of test substances (0 μM, and within the range 0.01-20 μM) in assay buffer [25 mM Tris/HCl pH 8, 1 mM EGTA, 2.5 mM Glutathion, 0.02% Chicken Albumin, 0.05% Pluronic F127, 25 mM NaCl, 500 nM H4 peptide and 600 nM Acetyl Coenzyme A].
The reaction was stopped by addition of Detection Solution (25 mM HEPES pH 7.5, 0.1% BSA, 22 nM SAXL665 (Cisbio #610SAXLE), 100 μM Anacardic Acid (Enzo #ALX-270-381), 1 nM Anti-Histone H4 (ACETYL K8) Antibody (ABCAM #AB15823), 0.5 nM Anti-Rabbit IgG Eu (Perkin Elmer #AD0083).
The fluorescence emission at 620 nm and 665 nm after excitation at 330-350 nm was measured in a TR-FRET measuring instrument, for instance a Rubystar or a Pherastar (both from BMG Lab Technologies, Offenburg, Germany) or a Viewlux (Perkin-Elmer). The ratio of the emission at 665 nm and at […] was used as indicator of the amount of acetylated peptide.
The resulting data (ratio) were normalized, taking 0% inhibition as the mean value of control measurements where all reagents were included. In this case 50 nl DMSO were used instead of compounds. […] IC50 values were determined by regression analysis based on a 4 parameter equation (minimum, maximum, ICM, Hill; Y=Max+(Min−Max)/(1+(X/ICso) Hill) using the Screener Software (Genedata).

For experiment [1], the system named is ESR1 transcription in MVLN cells. Description: Repression of ESR1 transcription, MVLN luciferase reporter assay. The settings on record: Homo sapiens, luciferase signal after 24 h, read-out: MVLN reporter assay, IC50[M] (arithmetic mean). The experiment is classed as cell-based. The gist of the method:
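MVLN cells stably carry an ER-responsive vitellogenin A2 element driving luciferase. After 24 h of compound treatment, luciferase was read in lysate as the measure of ERα transcription. Alamar Blue fluorescence (530/590 nm, 2 h) was read first to control for cell loss; samples were run in duplicate.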
In general terms: A reporter such as luciferase makes a cellular process visible.

Another experiment deals with MDA-MB-436 cells. Description: Proliferation assay in MDA-MB-436 cells (negative control cell line). Type of experiment: cell-based. The settings on record: Homo sapiens, 144 h, Alamar Blue, read-out: MDA-MB-436 proliferation assay, EC50[M] (arithmetic mean).
Source text: as §1, §2, §3, §4

For a further experiment, the system named is LCLC-97TM1 cells. Description: Proliferation assay in LCLC-97TM1 cells. The settings on record: Homo sapiens, 144 h, Alamar Blue, read-out: LCLC97TM1 proliferation assay, EC50[M] (arithmetic mean). Type of experiment: cell-based. How it is done:
as §2, §3, §4

Where only a bound is given, the exact number is not on record here.

T1 sequence (Q92794 194-810): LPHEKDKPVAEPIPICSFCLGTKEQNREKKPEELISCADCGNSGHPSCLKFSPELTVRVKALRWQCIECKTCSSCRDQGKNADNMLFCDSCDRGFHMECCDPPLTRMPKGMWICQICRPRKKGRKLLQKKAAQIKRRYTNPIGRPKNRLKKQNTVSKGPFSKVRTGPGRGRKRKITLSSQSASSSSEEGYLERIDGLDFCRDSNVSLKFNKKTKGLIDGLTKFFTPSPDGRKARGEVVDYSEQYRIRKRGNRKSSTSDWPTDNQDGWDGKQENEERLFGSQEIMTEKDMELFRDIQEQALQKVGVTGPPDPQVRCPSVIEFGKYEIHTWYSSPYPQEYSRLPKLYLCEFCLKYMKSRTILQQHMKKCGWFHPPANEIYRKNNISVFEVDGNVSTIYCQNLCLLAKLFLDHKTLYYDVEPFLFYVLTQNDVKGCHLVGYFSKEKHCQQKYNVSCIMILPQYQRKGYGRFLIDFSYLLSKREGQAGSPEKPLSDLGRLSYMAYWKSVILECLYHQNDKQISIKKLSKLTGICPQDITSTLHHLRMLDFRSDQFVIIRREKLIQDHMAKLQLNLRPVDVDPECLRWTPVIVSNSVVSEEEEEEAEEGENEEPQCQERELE
T2 sequence (Q8WYB5 723-2073 limits assumed): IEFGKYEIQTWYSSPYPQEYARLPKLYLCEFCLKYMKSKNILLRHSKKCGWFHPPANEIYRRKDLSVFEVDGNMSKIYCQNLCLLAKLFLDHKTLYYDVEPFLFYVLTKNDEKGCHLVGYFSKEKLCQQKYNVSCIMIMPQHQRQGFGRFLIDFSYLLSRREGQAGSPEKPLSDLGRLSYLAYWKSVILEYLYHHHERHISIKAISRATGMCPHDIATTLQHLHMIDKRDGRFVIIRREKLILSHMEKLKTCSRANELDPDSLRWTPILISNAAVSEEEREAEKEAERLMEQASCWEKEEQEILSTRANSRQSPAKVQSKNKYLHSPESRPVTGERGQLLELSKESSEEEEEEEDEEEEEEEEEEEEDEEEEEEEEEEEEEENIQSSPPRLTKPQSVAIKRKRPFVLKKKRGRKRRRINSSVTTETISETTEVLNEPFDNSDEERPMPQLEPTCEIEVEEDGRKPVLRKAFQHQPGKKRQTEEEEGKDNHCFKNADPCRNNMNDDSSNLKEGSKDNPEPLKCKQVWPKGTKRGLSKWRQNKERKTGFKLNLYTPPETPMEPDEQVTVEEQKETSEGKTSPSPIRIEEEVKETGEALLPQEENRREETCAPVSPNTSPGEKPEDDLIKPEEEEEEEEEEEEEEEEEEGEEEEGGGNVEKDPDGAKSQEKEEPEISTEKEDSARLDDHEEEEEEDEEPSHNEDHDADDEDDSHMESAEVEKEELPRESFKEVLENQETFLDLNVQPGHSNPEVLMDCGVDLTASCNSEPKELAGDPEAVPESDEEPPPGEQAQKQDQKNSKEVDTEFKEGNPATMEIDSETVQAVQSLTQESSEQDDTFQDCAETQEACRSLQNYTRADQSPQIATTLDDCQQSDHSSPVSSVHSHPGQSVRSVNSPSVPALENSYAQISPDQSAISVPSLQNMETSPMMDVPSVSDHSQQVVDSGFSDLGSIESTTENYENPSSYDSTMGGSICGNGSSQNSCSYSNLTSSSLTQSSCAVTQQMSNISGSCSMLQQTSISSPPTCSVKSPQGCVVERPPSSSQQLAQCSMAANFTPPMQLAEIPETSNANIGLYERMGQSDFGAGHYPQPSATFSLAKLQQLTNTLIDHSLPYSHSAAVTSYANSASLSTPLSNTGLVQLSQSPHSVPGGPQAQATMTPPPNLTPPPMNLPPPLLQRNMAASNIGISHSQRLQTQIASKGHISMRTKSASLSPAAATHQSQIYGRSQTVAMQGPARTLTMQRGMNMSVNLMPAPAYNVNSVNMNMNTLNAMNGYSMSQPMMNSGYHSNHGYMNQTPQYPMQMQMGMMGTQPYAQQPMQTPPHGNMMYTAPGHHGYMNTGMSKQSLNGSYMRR

As to `Cc1ccc2cc(C(=O)NS(=O)(=O)c3ccccc3-c3ccccc3)oc2c1` [Example 2, N-([1,1′-biphenyl]-2-sulfonyl)-6-methyl-1-benzofuran-2-carboxamide], the EC50 in the experiment with ZR-75-1 cells and with MDA-MB-436 cells was > 2e-05 M each time. The IC50 worked out at 882 nM at KAT6A, 2220 nM at KAT6B and 1.11e-05 M in experiment [1].
As for `Cc1cc(C)c2cc(C(=O)NS(=O)(=O)c3ccccc3-c3ccccc3C)oc2c1` [Example 6, 4,6-Dimethyl-N-(2′-methyl[1,1′-biphenyl]-2-sulfonyl)-1-benzofuran-2-carboxamide], the EC50 in the experiment with ZR-75-1 cells and in the experiment with MDA-MB-436 cells was > 2e-05 M each time. In addition, the IC50 is 128 nM at KAT6A, 245 nM at KAT6B and 5.55e-06 M in experiment [1].
As to `Cc1ccc(S(=O)(=O)NC(=O)c2cc3c(C)cc(C)cc3o2)c(-c2ccccc2)c1` [Example 7, 4,6-Dimethyl-N-(5-methyl[1,1′-biphenyl]-2-sulfonyl)-1-benzofuran-2-carboxamide], the EC50 with ZR-75-1 cells and in the experiment on MDA-MB-436 cells was > 2e-05 M each time. Also, the IC50 was 86.5 nM at KAT6A, 114 nM at KAT6B and 4.54e-06 M in experiment [1].
With `Cc1cc(C)c2cc(C(=O)NS(=O)(=O)c3ccccc3-c3ccccc3)oc2c1` [Example 9, N-([1,1′-biphenyl]-2-sulfonyl)-4,6-dimethyl-1-benzofuran-2-carboxamide], the EC50 with ZR-75-1 cells was 1.81e-05 M; in the experiment on MDA-MB-436 cells, > 2e-05 M. In addition, the figures for the IC50 (on KAT6A; at KAT6B; in experiment [1]) were 90.5 nM, 220 nM and 2.5e-06 M, respectively.
For `COc1cc(C)cc2oc(C(=O)NS(=O)(=O)c3ccccc3-c3ccccc3)cc12` [Example 10, N-([1,1′-biphenyl]-2-sulfonyl)-4-methoxy-6-methyl-1-benzofuran-2-carboxamide], in that order: 1.39e-05 M, > 2e-05 M, 933 nM, 1120 nM and 1e-05 M.
The like results for `Cc1cc(C)c2cc(C(=O)NS(=O)(=O)c3ccccc3-c3cccc(Cl)c3)oc2c1` [Example 11, N-(3′-chloro[1,1′-biphenyl]-2-sulfonyl)-4,6-dimethyl-1-benzofuran-2-carboxamide] were, in that order, 1.17e-05 M, 1.42e-05 M, 63.5 nM, 299 nM and 5.85e-06 M.
The like results for `COc1cc(C)cc2oc(C(=O)NS(=O)(=O)c3ccc(C)cc3-c3ccccc3)cc12` [Example 12, 4-Methoxy-6-methyl-N-(5-methyl[1,1′-biphenyl]-2-sulfonyl)-1-benzofuran-2-carboxamide] were, in that order, 1.03e-05 M, > 2e-05 M, 401 nM, 372 nM and 6.05e-06 M.
In the case of `CCOc1ccccc1S(=O)(=O)NC(=O)c1cc2c(OC)cc(C)cc2o1` [Example 13, N-(2-Ethoxybenzene-1-sulfonyl)-4-methoxy-6-methyl-1-benzofuran-2-carboxamide], the EC50 in the experiment on ZR-75-1 cells is 1.02e-05 M; in the experiment on MDA-MB-436 cells it was > 2e-05 M. Besides, the IC50 is 1130 nM at KAT6A, 1730 nM at KAT6B and 5.08e-06 M in experiment [1].
Regarding `O=C(NS(=O)(=O)c1ccccc1-c1ccccc1)c1cc2ccc(C(F)F)cc2o1` [Example 17, N-([1,1′-Biphenyl]-2-sulfonyl)-6-(difluoromethyl)-1-benzofuran-2-carboxamide], the EC50 was 6.12e-06 M in the experiment on ZR-75-1 cells and > 2e-05 M in the experiment with MDA-MB-436 cells. The values for the IC50 on KAT6A and on KAT6B were 1300 nM and 2580 nM, respectively.
Take `Cc1cc(C)c2cc(C(=O)NS(=O)(=O)c3cccc4ccc(C)nc34)oc2c1` [Example 21, 4,6-Dimethyl-N-(2-methylquinoline-8-sulfonyl)-1-benzofuran-2-carboxamide]: the EC50 is 1.61e-06 M with ZR-75-1 cells, 3.47e-06 M with LCLC-97TM1 cells and > 2e-05 M in the experiment with MDA-MB-436 cells. Moreover, the IC50 came to 27.1 nM at KAT6A, 53.1 nM at KAT6B and 1.17e-06 M in experiment [1].
With `O=C(NS(=O)(=O)c1ccccc1OC1CC1)c1cc2c(F)cc(C3CC3)cc2o1` [Example 24, 6-Cyclopropyl-N-[2-(cyclopropyloxy)benzene-1-sulfonyl]-4-fluoro-1-benzofuran-2-carboxamide], the EC50 with ZR-75-1 cells was determined as 6.74e-07 M. Moreover, the IC50 at KAT6A was 14.1 nM; on KAT6B it was 19 nM; in experiment [1], 2.47e-07 M.
As to `CCC(C)c1ccc2cc(C(=O)NS(=O)(=O)c3ccccc3-c3ccccc3)oc2c1` (stereo not shown) [Example 27, N-([1,1′-biphenyl]-2-sulfonyl)-6-(butan-2-yl)-1-benzofuran-2-carboxamide], the EC50 with ZR-75-1 cells and in the experiment with MDA-MB-436 cells was > 2e-05 M each time. In addition, the IC50 is 2030 nM on KAT6A, 9210 nM on KAT6B and > 2e-05 M in experiment [1].
On to `CC(C)c1ccc2cc(C(=O)NS(=O)(=O)c3ccccc3-c3ccccc3)oc2c1` [Example 54, N-{[1,1′-Biphenyl]-2-sulfonyl}-6-(propan-2-yl)-1-benzofuran-2-carboxamide], for which the values for the EC50 in the experiment on ZR-75-1 cells, with LCLC-97TM1 cells and with MDA-MB-436 cells were 5.75e-06 M, > 2e-05 M and > 2e-05 M, respectively. Further, the IC50 on KAT6A is 464 nM; at KAT6B, 667 nM; in experiment [1], 3.02e-06 M.
Take `CC(C)c1ccc2cc(C(=O)NS(=O)(=O)c3ccccc3)oc2c1` [Example 56, N-(Benzenesulfonyl)-6-(propan-2-yl)-1-benzofuran-2-carboxamide]: the EC50 with ZR-75-1 cells and with MDA-MB-436 cells was > 2e-05 M each time. In addition, the results for the IC50 (at KAT6A; on KAT6B; in experiment [1]) were 1560 nM, 3940 nM and 1.52e-05 M, respectively.
Turning to `CC(C)c1ccc2cc(C(=O)NS(=O)(=O)c3ccccc3Cl)oc2c1` [Example 73, N-(2-chlorobenzenesulfonyl)-6-(propan-2-yl)-1-benzofuran-2-carboxamide], the results for the EC50 in the experiment with ZR-75-1 cells, in the experiment with LCLC-97TM1 cells and in the experiment on MDA-MB-436 cells were 7.08e-06 M, > 2e-05 M and > 2e-05 M, respectively. Further, the figures for the IC50 (at KAT6A; at KAT6B; in experiment [1]) were 1350 nM, 1780 nM and 8.69e-06 M, respectively.
